{"source": "the supplement of paper PMC10307832", "assay_in_all_cases": "relative viability (nuclei count vs DMSO), 5 days (fraction); higher = more cells survive", "key": {"IA-LM": {"test_system": "IA-LM", "summary_of_the_method": "(§1)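 Lung cancer cell lines in 1536-well plates were dosed by pin tool the day after seeding, either with one drug alone or with a fixed anchor-drug dose plus five library-drug doses (not always all listed) in √10 steps. After 5 days, cells were fixed and their nuclei stained in one step (final 0.05% Triton X-100, 1% formaldehyde, 1 ug/ml Hoechst), then counted on 4× images. Relative viability is the nuclei count in treated wells divided by that in vehicle wells. Values are medians of duplicate plates.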"}, "NCI-H661": {"test_system": "NCI-H661", "summary_of_the_method": "as §1"}, "SK-LU-1": {"test_system": "SK-LU-1", "summary_of_the_method": "as §1"}, "NCI-H596": {"test_system": "NCI-H596", "summary_of_the_method": "as §1"}, "NCI-H1666": {"test_system": "NCI-H1666", "summary_of_the_method": "as §1"}, "NCI-H1944": {"test_system": "NCI-H1944", "summary_of_the_method": "as §1"}, "NCI-H1703": {"test_system": "NCI-H1703", "summary_of_the_method": "as §1"}, "A549": {"test_system": "A549", "summary_of_the_method": "as §1"}, "NCI-H1299": {"test_system": "NCI-H1299", "summary_of_the_method": "as §1"}, "EBC-1": {"test_system": "EBC-1", "summary_of_the_method": "as §1"}, "PC-14": {"test_system": "PC-14", "summary_of_the_method": "as §1"}, "Calu-6": {"test_system": "Calu-6", "summary_of_the_method": "as §1"}}, "data": [{"smiles": "CCNC(=O)c1noc(-c2cc(C(C)C)c(O)cc2O)c1-c1ccc(CN2CCOCC2)cc1", "note": "[Luminespib] + CS(=O)(=O)CCNCc1ccc(-c2ccc3ncnc(Nc4ccc(OCc5cccc(F)c5)c(Cl)c4)c3c2)o1 [Lapatinib] (partner 2 µM)", "values": [{"measurement": "relative viability", "setting": "IA-LM; first compound 0.002 µM", "result": 0.929}, {"measurement": "relative viability", "setting": "IA-LM; first compound 0.006325 µM", "result": 0.935}, {"measurement": "relative viability", "setting": "IA-LM; first compound 0.02 µM", "result": 0.643}, {"measurement": "relative viability", "setting": "IA-LM; first compound 0.06325 µM", "result": 0.0552}, {"measurement": "relative viability", "setting": "IA-LM; first compound 0.2 µM", "result": 0.066}, {"measurement": "relative viability", "setting": "NCI-H661; first compound 0.002 µM", "result": 0.469}, {"measurement": "relative viability", "setting": "NCI-H661; first compound 0.006325 µM", "result": 0.464}, {"measurement": "relative viability", "setting": "NCI-H661; first compound 0.02 µM", "result": 0.35}, {"measurement": "relative viability", "setting": "NCI-H661; first compound 0.06325 µM", "result": 0.324}, {"measurement": "relative viability", "setting": "NCI-H661; first compound 0.2 µM", "result": 0.208}, {"measurement": "relative viability", "setting": "SK-LU-1; first compound 0.002 µM", "result": 0.905}, {"measurement": "relative viability", "setting": "SK-LU-1; first compound 0.006325 µM", "result": 0.469}, {"measurement": "relative viability", "setting": "SK-LU-1; first compound 0.02 µM", "result": 0.424}, {"measurement": "relative viability", "setting": "SK-LU-1; first compound 0.06325 µM", "result": 0.164}, {"measurement": "relative viability", "setting": "SK-LU-1; first compound 0.2 µM", "result": 0.133}, {"measurement": "relative viability", "setting": "NCI-H596; first compound 0.002 µM", "result": 1.18}, {"measurement": "relative viability", "setting": "NCI-H596; first compound 0.006325 µM", "result": 0.99}, {"measurement": "relative viability", "setting": "NCI-H596; first compound 0.06325 µM", "result": 0.933}, {"measurement": "relative viability", "setting": "NCI-H596; first compound 0.2 µM", "result": 0.969}, {"measurement": "relative viability", "setting": "NCI-H1666; first compound 0.002 µM", "result": 0.717}, {"measurement": "relative viability", "setting": "NCI-H1666; first compound 0.006325 µM", "result": 0.709}, {"measurement": "relative viability", "setting": "NCI-H1666; first compound 0.02 µM", "result": 0.585}, {"measurement": "relative viability", "setting": "NCI-H1666; first compound 0.06325 µM", "result": 0.718}, {"measurement": "relative viability", "setting": "NCI-H1666; first compound 0.2 µM", "result": 0.533}, {"measurement": "relative viability", "setting": "NCI-H1944; first compound 0.002 µM", "result": 0.869}, {"measurement": "relative viability", "setting": "NCI-H1944; first compound 0.006325 µM", "result": 0.724}, {"measurement": "relative viability", "setting": "NCI-H1944; first compound 0.02 µM", "result": 0.445}, {"measurement": "relative viability", "setting": "NCI-H1944; first compound 0.06325 µM", "result": 0.41}, {"measurement": "relative viability", "setting": "NCI-H1944; first compound 0.2 µM", "result": 0.407}, {"measurement": "relative viability", "setting": "NCI-H1703; first compound 0.002 µM", "result": 1.14}, {"measurement": "relative viability", "setting": "NCI-H1703; first compound 0.006325 µM", "result": 1.07}, {"measurement": "relative viability", "setting": "NCI-H1703; first compound 0.02 µM", "result": 0.998}, {"measurement": "relative viability", "setting": "NCI-H1703; first compound 0.06325 µM", "result": 0.158}, {"measurement": "relative viability", "setting": "NCI-H1703; first compound 0.2 µM", "result": 0.16}, {"measurement": "relative viability", "setting": "A549; first compound 0.002 µM", "result": 0.983}, {"measurement": "relative viability", "setting": "A549; first compound 0.006325 µM", "result": 0.903}, {"measurement": "relative viability", "setting": "A549; first compound 0.02 µM", "result": 0.897}, {"measurement": "relative viability", "setting": "A549; first compound 0.06325 µM", "result": 0.627}, {"measurement": "relative viability", "setting": "A549; first compound 0.2 µM", "result": 0.0491}, {"measurement": "relative viability", "setting": "NCI-H1299; first compound 0.002 µM", "result": 1.04}, {"measurement": "relative viability", "setting": "NCI-H1299; first compound 0.006325 µM", "result": 0.965}, {"measurement": "relative viability", "setting": "NCI-H1299; first compound 0.02 µM", "result": 0.989}, {"measurement": "relative viability", "setting": "NCI-H1299; first compound 0.06325 µM", "result": 0.892}, {"measurement": "relative viability", "setting": "NCI-H1299; first compound 0.2 µM", "result": 0.219}, {"measurement": "relative viability", "setting": "EBC-1; first compound 0.002 µM", "result": 0.204}, {"measurement": "relative viability", "setting": "EBC-1; first compound 0.006325 µM", "result": 0.223}, {"measurement": "relative viability", "setting": "EBC-1; first compound 0.02 µM", "result": 0.233}, {"measurement": "relative viability", "setting": "EBC-1; first compound 0.06325 µM", "result": 0.187}, {"measurement": "relative viability", "setting": "EBC-1; first compound 0.2 µM", "result": 0.194}, {"measurement": "relative viability", "setting": "PC-14; first compound 0.002 µM", "result": 0.383}, {"measurement": "relative viability", "setting": "PC-14; first compound 0.006325 µM", "result": 0.267}, {"measurement": "relative viability", "setting": "PC-14; first compound 0.02 µM", "result": 0.247}, {"measurement": "relative viability", "setting": "PC-14; first compound 0.06325 µM", "result": 0.138}, {"measurement": "relative viability", "setting": "PC-14; first compound 0.2 µM", "result": 0.116}, {"measurement": "relative viability", "setting": "Calu-6; first compound 0.002 µM", "result": 1.11}, {"measurement": "relative viability", "setting": "Calu-6; first compound 0.006325 µM", "result": 0.962}, {"measurement": "relative viability", "setting": "Calu-6; first compound 0.02 µM", "result": 1.38}, {"measurement": "relative viability", "setting": "Calu-6; first compound 0.06325 µM", "result": 0.166}, {"measurement": "relative viability", "setting": "Calu-6; first compound 0.2 µM", "result": 0.119}]}, {"smiles": "CN1CCN(CCOc2cc(OC3CCOCC3)c3c(Nc4c(Cl)ccc5c4OCO5)ncnc3c2)CC1", "note": "[Saracatinib] + CC1(C)CCC(c2ccc(Cl)cc2)=C(CN2CCN(c3ccc(C(=O)NS(=O)(=O)c4ccc(N[C@H](CCN5CCOCC5)CSc5ccccc5)c(S(=O)(=O)C(F)(F)F)c4)cc3)CC2)C1 [Navitoclax] (partner 0.5 µM)", "values": [{"measurement": "relative viability", "setting": "IA-LM; first compound 0.02 µM", "result": 0.865}, {"measurement": "relative viability", "setting": "IA-LM; first compound 0.6325 µM", "result": 1.45}, {"measurement": "relative viability", "setting": "IA-LM; first compound 2 µM", "result": 1}, {"measurement": "relative viability", "setting": "SK-LU-1; first compound 0.02 µM", "result": 0.752}, {"measurement": "relative viability", "setting": "SK-LU-1; first compound 0.2 µM", "result": 0.535}, {"measurement": "relative viability", "setting": "SK-LU-1; first compound 0.6325 µM", "result": 0.527}, {"measurement": "relative viability", "setting": "SK-LU-1; first compound 2 µM", "result": 0.412}, {"measurement": "relative viability", "setting": "NCI-H596; first compound 0.02 µM", "result": 0.952}, {"measurement": "relative viability", "setting": "NCI-H596; first compound 0.2 µM", "result": 0.711}, {"measurement": "relative viability", "setting": "NCI-H596; first compound 0.6325 µM", "result": 0.925}, {"measurement": "relative viability", "setting": "NCI-H596; first compound 2 µM", "result": 0.682}, {"measurement": "relative viability", "setting": "NCI-H1666; first compound 0.02 µM", "result": 1.04}, {"measurement": "relative viability", "setting": "NCI-H1666; first compound 0.2 µM", "result": 0.928}, {"measurement": "relative viability", "setting": "NCI-H1666; first compound 0.6325 µM", "result": 1.06}, {"measurement": "relative viability", "setting": "NCI-H1666; first compound 2 µM", "result": 0.667}, {"measurement": "relative viability", "setting": "NCI-H1944; first compound 0.02 µM", "result": 1.14}, {"measurement": "relative viability", "setting": "NCI-H1944; first compound 0.6325 µM", "result": 0.974}, {"measurement": "relative viability", "setting": "NCI-H1944; first compound 2 µM", "result": 0.718}, {"measurement": "relative viability", "setting": "NCI-H1703; first compound 0.02 µM", "result": 1.09}, {"measurement": "relative viability", "setting": "NCI-H1703; first compound 0.2 µM", "result": 0.904}, {"measurement": "relative viability", "setting": "NCI-H1703; first compound 0.6325 µM", "result": 0.43}, {"measurement": "relative viability", "setting": "NCI-H1703; first compound 2 µM", "result": 0.269}, {"measurement": "relative viability", "setting": "A549; first compound 0.02 µM", "result": 1.42}, {"measurement": "relative viability", "setting": "A549; first compound 0.2 µM", "result": 0.903}, {"measurement": "relative viability", "setting": "A549; first compound 0.6325 µM", "result": 1.39}, {"measurement": "relative viability", "setting": "A549; first compound 2 µM", "result": 1.38}, {"measurement": "relative viability", "setting": "NCI-H1299; first compound 0.02 µM", "result": 1.01}, {"measurement": "relative viability", "setting": "NCI-H1299; first compound 0.2 µM", "result": 1.06}, {"measurement": "relative viability", "setting": "NCI-H1299; first compound 0.6325 µM", "result": 1.04}, {"measurement": "relative viability", "setting": "NCI-H1299; first compound 2 µM", "result": 1.04}, {"measurement": "relative viability", "setting": "EBC-1; first compound 0.02 µM", "result": 0.542}, {"measurement": "relative viability", "setting": "EBC-1; first compound 0.2 µM", "result": 0.408}, {"measurement": "relative viability", "setting": "EBC-1; first compound 0.6325 µM", "result": 0.393}, {"measurement": "relative viability", "setting": "EBC-1; first compound 2 µM", "result": 0.43}, {"measurement": "relative viability", "setting": "PC-14; first compound 0.02 µM", "result": 1.01}, {"measurement": "relative viability", "setting": "PC-14; first compound 0.2 µM", "result": 1.01}, {"measurement": "relative viability", "setting": "PC-14; first compound 0.6325 µM", "result": 0.417}, {"measurement": "relative viability", "setting": "PC-14; first compound 2 µM", "result": 0.198}, {"measurement": "relative viability", "setting": "Calu-6; first compound 0.02 µM", "result": 0.914}, {"measurement": "relative viability", "setting": "Calu-6; first compound 0.2 µM", "result": 0.746}, {"measurement": "relative viability", "setting": "Calu-6; first compound 0.6325 µM", "result": 0.731}, {"measurement": "relative viability", "setting": "Calu-6; first compound 2 µM", "result": 0.562}]}]}
